Patent publication US7781416B2, “Derivatives of partially desulphated glycosaminoglycans as heparanase inhibitors, endowed with antiangiogenic activity and devoid of anticoagulating effect” (Sigma-Tau Research Switzerland S.A., priority 2002, dated 2010)

Tests used:
Type in all cases: biochemical
recombinant heparanase [1] = target: T1, recombinant heparanase (Homo sapiens, UniProt Q9Y251); test: Gel permeation analysis before and after digestion with heparanase (susceptibility to cleavage); settings: 2 mg compound, 4 μg recombinant heparanase, 48 h, 37° C., pH 5.8; GPC-HPLC
T1 construct: Recombinant enzymatically active heparanase was purified from heparanase-transfected CHO cells; made in house; host or cells: CHO cells transfected with heparanase
T1 sequence (Q9Y251 158-543 limits assumed): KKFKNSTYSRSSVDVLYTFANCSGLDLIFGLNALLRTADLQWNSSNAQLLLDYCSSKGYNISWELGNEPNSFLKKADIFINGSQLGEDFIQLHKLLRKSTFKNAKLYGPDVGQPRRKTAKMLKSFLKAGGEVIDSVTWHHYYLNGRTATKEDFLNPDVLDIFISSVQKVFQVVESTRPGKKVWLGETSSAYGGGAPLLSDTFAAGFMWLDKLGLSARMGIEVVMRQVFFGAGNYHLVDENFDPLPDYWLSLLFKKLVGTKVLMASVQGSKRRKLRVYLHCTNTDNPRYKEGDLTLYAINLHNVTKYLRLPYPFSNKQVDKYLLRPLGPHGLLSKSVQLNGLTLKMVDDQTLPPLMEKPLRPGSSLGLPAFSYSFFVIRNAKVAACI
T1 sequence (Q9Y251 36-109 limits assumed): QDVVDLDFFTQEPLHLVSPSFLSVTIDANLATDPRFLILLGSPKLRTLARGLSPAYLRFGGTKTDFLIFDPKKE
Protocol: FIG. 8. Glycol-splitting inhibits cleavage by heparanase. Gel filtration profiles of fully N-acetylated heparin (A) and 52% glycol split heparin (B) before (a) and after (b) incubation with heparanase. 2 mg of each compound were incubated for 48 h at 37° C. in 40 mM phosphate-citrate buffer, pH 5.8, with or without 4 μg recombinant heparanase in a total volume of 50 μl. The samples were lyophilized, then redisolved in 0.5 ml water and analyzed by GPC-HPLC using 300×7.8 mm TSK PW 2000 and PW 3000 colums and a refraction index detector. The sharp peak is from salts.
Gel permeation analysis of N-acetyl heparin (NAH) and ˜50% glycol-split heparin (H, 52gs) before and after digestion with heparinase 2 mg of each compound were incubated for 48 h at 37° C. in 40 mM phosphate-citrate buffer, pH 5.8, with or without 4 μg recombinant heparanase in a total volume of 50 μl. The samples were lyophilized, then redisolved in 0.5 ml of water and analyzed by GPC-HPLC using 300×7.8 mm TSK PW 2000 and PW 3000 columns.

recombinant heparanase [2] = target: T2, recombinant heparanase (Homo sapiens, UniProt Q9Y251); test: Heparanase inhibition, fragmentation of HS of sulphate labelled ECM (Table 1); settings: pH 6.2
T2 sequence (Q9Y251 36-543): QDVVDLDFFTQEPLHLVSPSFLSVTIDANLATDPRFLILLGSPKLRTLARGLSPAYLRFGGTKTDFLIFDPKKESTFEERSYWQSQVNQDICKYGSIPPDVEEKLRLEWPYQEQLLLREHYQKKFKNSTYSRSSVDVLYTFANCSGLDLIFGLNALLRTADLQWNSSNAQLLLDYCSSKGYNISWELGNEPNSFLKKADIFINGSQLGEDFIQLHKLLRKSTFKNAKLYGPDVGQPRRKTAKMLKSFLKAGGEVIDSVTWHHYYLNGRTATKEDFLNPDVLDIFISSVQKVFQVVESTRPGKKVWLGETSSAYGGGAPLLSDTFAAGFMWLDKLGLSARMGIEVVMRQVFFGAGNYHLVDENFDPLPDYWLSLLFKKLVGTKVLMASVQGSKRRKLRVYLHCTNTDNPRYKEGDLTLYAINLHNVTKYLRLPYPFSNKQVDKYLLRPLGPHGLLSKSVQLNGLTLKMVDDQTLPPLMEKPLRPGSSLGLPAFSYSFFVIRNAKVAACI
Protocol: The heparanase inhibiting activity was determined according to a method established by Vlodavsky's group (Bitan M. et al, 1995). The method is based on evaluation of the extent of fragmentation of the heparan sulphate chains of heparan sulphate proteoglycans (HSPG) caused by heparanase. Sulphate labelled extracellular matrix (ECM) is most commonly used as a source of HSPG. Sulphate labelled ECM is incubated with recombinant heparanase at pH 6.2 in the absence and in the presence of increasing concentrations of the test compound. To evaluate the occurrence of proteoglycan degradation, the incubation medium is collected and applied for gel filtration on Sepharose 6B columns (0.9×30 cm). Fractions (0,2 ml) are eluted with PBS at a flow rate of 5 ml/h and counted for radioactivity. The excluded volume (Vo) is marked by blue dextran and the total included volume (Vt) by phenol red. Degradation fragments of HS side chains are eluted from Sepharose 6B at 0.5<Kav<0.8 (peak II).

recombinant heparanase [3] = target: T1, recombinant heparanase; test: Heparanase inhibition activity with sulfate labeled ECM as substrate (Example 4, Table 2); settings: 1 μg/ml; heparanase 40 ng/ml, 4 h, 37° C., pH 6.0
Protocol: Recombinant enzymatically active heparanase was purified from heparanase-transfected CHO cells (1).
Bovine corneal endothelial cells were plated into 35-mm tissue culture dishes at an initial density of 2×10^5 cells/ml and cultured as described above, except that 4% dextran T-40 was included in the growth medium (1, 52). On day 12, the subendothelial ECM was exposed by dissolving the cell layer with PBS containing 0.5% Triton X-100 and 20 mM NH4OH, followed by four washes with PBS (12). The ECM remained intact, free of cellular debris and firmly attached to the entire area of the tissue culture dish. To produce sulfate labelled ECM, […] (Amersham, Buckinghamshire, UK) was added (25 μCi/ml) on days 2 and 5 after seeding and the cultures were incubated with the label without medium change and processed as described (1, 52). Nearly 80% of the ECM radioactivity was incorporated into HSPG.
Heparin species were tested for their ability to inhibit heparanase, using metabolically sulfate labeled ECM as a substrate. […] Fractions (0.2 ml) were eluted with PBS at a flow rate of 5 ml/h and counted for radioactivity. […]
Heparanase activity is calculated as the total amount of cpm eluted in peak II multiplied by the Kav (i.e., elution position) of these fragments. […]

cleavage by heparanase (recombinant heparanase [1]): cleaved by heparanase
Inhibition (recombinant heparanase [2]): >100%
Heparanase inhibitory activity, % Mean [SD (N)] (recombinant heparanase [3]): ~70%
Substance: Heparin
